Test results: US9186344B2, “Glycogen or polysaccharide storage disease treatment method” (Baylor Research Institute, priority 2004, dated 2015)

Tests used:
GSDII patient [1] = test: Urinary organic acids, blood acylcarnitines and plasma amino acids, Example 2 patient; format: in vivo, human; settings: thirteen hours after initiating the C7 diet
Experimental: Organic Acids may be measured as follows. Organic acids in urine specimens are determined with isolation by Liquid Partition Chromatography (LPC) and quantitative Gas Chromatography-Mass Spectrometry (GCMS) using an internal standard. The specimen is derivatized to form pentafluorobenzyl oximes (PFBO) of oxo-acids and the organic acids isolated by Liquid Partition chromatography on silicic acid hydrated with dilute sulfuric acid and eluted with mixtures of tert-Amyl alcohol and chloroform. After drying, the organic acids are derivatized to form volatile trimethylsilyl (TMS) derivatives for separation by capillary Gas Chromatography (GC) with temperature programming. Detection is by Mass Spectrometry (MS) with identification of the organic acids by their mass spectra. Organic acids are quantified by peak areas of reconstructed ion chromatograms with internal standards and calibration curves.
(§1) Acylcarnitine Profiles. Acylcarnitines and carnitine levels in dried blood spots (dbs), plasma and amniotic fluid by automated electrospray tandem mass spectrometry Acylcarnitines are extracted from blood spots, plasmas and amniotic fluid with methanol containing stable isotopically labeled internal standards. The extract is derivatized to form butyl esters. An automated sample introduction system delivers the samples to the electrospray tandem mass spectrometer (ESI-MS/MS) operating in the multiple channel analysis mode in which acylcarnitines are identified, profiled, and quantified with stable isotopically labeled internal standards. This test also provides quantification of free, sum of acylcarnitines, and total carnitine levels.
Citrate supplementation was continued throughout the treatment.

[2] = test system: adult-onset GSD II (acid maltase deficiency) patient; test: Clinical course and pCO2 on triheptanoin diet, Example 1 patient; format: in vivo, human
Source text: During the subsequent 2 years, the patient experienced progressive muscle weakness, affecting strength and endurance, swallowing and producing urgency for urination and defecation. The patient's breathing became a major issue and weight had decreased from ˜127 to 101 lbs (46 Kg) over this interval. […] Home O2 was started and upon respiratory arrest was intubated and unsuccessfully extubated leading to emergency admission lasting one month. Following informed consent, the patient agreed to enter an approved Institutional Review Board (IRB) Protocol for dietary therapy with triheptanoin oil.
Clinical and Biochemical Course on Therapy. […] Esophageal dysmotility was documented. A percutaneous endoscopic gastrostomy (PEG) was placed on the sixth hospital day.
The diet was based on vivonex and ˜1500 Kcal was given by nasogastric tube, on admission. […] Total caloric intake was raised from ˜1500 to 1700 to 1900 per day with these dietary changes during […] 33 day admission.
The patient began ambulating by the 10th day that improved steadily, showering with assistance by the 28th day. Pneumonia on day 17 responded to therapy and was extubated on day 23. They were discharged on bilevel positive airway pressure (BIPAP), the C7 diet, and carnitine supplement.

[3] = test system: FOD patients (CPT I, CACT, CPT II, VLCAD, TFP, LCHAD, SCAD deficiency); test: Odd chain fatty acid (triheptanoin) diet in patients with mitochondrial fat oxidation defects (FOD); format: in vivo, human; settings: for Patient mortality / Patient mortality (deaths/patients): C7 Diet
Source text: Other examples of FODs that derive from errors in metabolism include: Carnitine Palmitoyl Transferase I (CPT I) deficiency, Carnitine-Acylcarnitine Translocase (CACT) deficiency, Carnitine Palmitoyl Transferase […] deficiency, very long chain acyl-CoA dehydrogenase (VLCAD) deficiency, Trifunctional Protein (TFP) deficiency, long chain acyl 3-hydroxy CoA dehydrogenase (LCHAD) and short chain acyl CoA dehydrogenase (SCAD) deficiency. Patients having each of these diseases were located and placed on an odd chain fatty acid diet, with informed consent and following under IRB.
The odd chain fatty acid diet and therapy of the present invention was compared to conventional treatments, which include: (1) a low fat, high carbohydrate diet; avoid fasting; frequent or continuous feeding and night time corn starch; or (2) a medium chain triglyceride (MCT oil) for long chain disorders; or (3) insulin and glucose to inhibit lipolysis. However, current treatments fail to treat the hypoglycemia and hepatomegaly (which often persist), the frequency and severity of Rhabdomyolysis; muscle weakness and fatigue are not improved and heart function often remains abnormal. Biochemically, the failure of existing therapies leave patients with impaired Acetyl-CoA production and ketogenesis, there remains an increase Acyl-CoA:CoA (mitochondrion) ratio during illness, a decreased NADH:NAD ratio during illness (mitochondrion), hypoglycemia and hyperammonemia.
Table 4 summarized a comparison of patent mortality for patients with FOD of conventional treatment (based on the literature, see *Neonatal onset; Conventional Diet Rx: JIMD 22: 488,1999), and the odd chain fatty acids of the present invention. There is a demonstrable increase in patient survival across a number of FODs.

GSDII patient [4] = test: Clinical course on triheptanoin diet, Example 2 patient; format: in vivo, human
Source text: Clinical Course. Following informed consent, the patient agreed to enter an approved IRB Protocol for dietary therapy with triheptanoin oil. […] Maximal inspiratory and expiratory pressures were 60 cm of water. […] And pO2=62.
The oral diet consisted of 2900 Kcal on admission. […] Total caloric intake was maintained at ˜2800 per day during his 30 day admission.
Initially, the patient required assistance and supervision with grooming, upper and lower extremity dressing, bathing, and toileting. The patient also required maximal assistance with ambulation and transfers from bed to wheelchair. […] They continued to require supervision, but without assistance, with transfers from bed to wheelchair and to toilet and shower. They had clearly made improvements in strength and endurance with exercise.

[5] = Blood acylcarnitine profile after triheptanoin via nasogastric tube; format: in vivo, horse
Source text: as §1
Horses: Eight healthy, fit 4 year old thoroughbred geldings may be used in a study. These horses are all sound and trained to the treadmill. The ability of horses to absorb and digest C7 oil was first determined.

[6] = on C7 diet and carnitine supplement
[7] = dietary triheptanoin supplementation, FOD patients

SMILES: CCCCCCC(=O)OCC(COC(=O)CCCCCC)OC(=O)CCCCCC [C7, triheptanoin]
- increase of plasma BCAA's (GSDII patient [1]): ~2 fold
- increase of plasma Glutamine (GSDII patient [1]): ~2 fold
- increase of plasma alanine level (GSDII patient [1]): 4 fold
- pCO2 (35-45) ([2]; Hospital Day 1, C7 26% Kcal): 43
- pCO2 (35-45) ([2]; Hospital Day 4, C7 35% Kcal): 51
- pCO2 (35-45) ([2]; Hospital Day 7, C7 35% Kcal): 42
- pCO2 (35-45) ([2]; Hospital Day 23, C7 40% Kcal, extubated): 48
- pCO2 (35-45) ([2]; Hospital Day 33, C7 40% Kcal, discharge): 44
- gastrostomy feeds stopped (swallowing improved) ([2]; after discharge): 7 months
- patient weight ([2]; by 15 months post-discharge, 46 Kg on admission): 60 kg
- day of extubation ([2]; hospital admission on C7 diet): 23 days
- return to work half-time after discharge [2, 6]: 5 weeks
- working full-time after discharge [2, 6]: ≤ 10 weeks
- full vital capacity ([2]; post-discharge follow-up): 40-45 % of predicted
- urgency for urination and defecation ([2]; within 13 hours of beginning the C7 diet): had ceased and remained normal for the rest of the admission
- pCO2 ([2]; within 13 hours of beginning the C7 diet, fell from 68, normal 35-45): 43
- Patient mortality ([3]; CACT, neonatal onset): 100%
- Patient mortality (deaths/patients) ([3]; CACT, neonatal onset): 1/1
- retinopathy (Choroideremia) ([3]; LCHAD patients): unchanged
- Patient mortality ([3]; LCHAD): 0%
- Patient mortality (deaths/patients) ([3]; LCHAD): 0/9
- peripheral neuropathy ([3]; TFP patients): unchanged
- Patient mortality ([3]; TFP): 0%
- Patient mortality (deaths/patients) ([3]; TFP): 1/5
- Patient mortality ([3]; VLCAD): 5%
- Patient mortality (deaths/patients) ([3]; VLCAD): 1/19
- Rhabdomyolysis [3, 7]: marked attenuation of Rhabdomyolysis
- cardiomyopathies [3, 7]: cardiomyopathies were resolved
- glucose homeostasis [3, 7]: normal glucose homeostasis was observed
- hepatomegaly [3, 7]: elimination of hepatomegaly
- mortality [3, 7]: reduced mortality
- muscle strength and endurance [3, 7]: improved muscle strength and endurance
- CPK (creatine kinase) levels ([3]; long-chain defects, FIG. 9): rapidly suppresses CPK levels
- increase in total vital capacity (GSDII patient [4]; at discharge compared to admission, diet plus physical therapy): 700 mL
- functional status at discharge (GSDII patient [4]; intensive physical therapy and diet, 30 day admission): independent with grooming, upper and lower extremity dressing, toileting, and locomotion with a manual wheelchair
- time of peak of C7 acyl carnitine ([5]; 0.5 gm/kg via nasogastric tube, fasted 12 hours, three horses): 90 min
- time of peak serum concentration of C3 acylcarnitine ([5]; in vivo): 120 min
- time of peak serum concentration of C5 acylcarnitine ([5]; in vivo): 120 min
